Entries after “also recorded” stand apart in the source; their conditions may differ.
Legend:
[1] = test system: C. elegans; experiment: Lifespan analysis of C. elegans treated with SIH; assay type: in vivo, Caenorhabditis elegans; details: for median lifespan: 25° C., treated from adulthood onwards, control (0 μM SIH) 12 days
Procedure: The effects of genetic ablation of ftn-2 and ftn-1 on wild type was measured using established protocols(11, 38). For SIH treatment compound was dissolved in dimethyl sulfoxide (Sigma-Aldrich) then added to the molten NGM at 55° C. along with 50 μg/mL amplicillin (Sigma-Aldrich). Media containing equivalent vehicle alone (0.5% v/v DMSO) and ampicillin was used for comparison. SIH data was collected using the temperature sensitive-sterile strain TJ1060. All life span assays were conducted at 25° C. following adulthood.
Kaplan-Maier survival curves were generated and compared via non-parametric Log rank tests (Prism v5.0d, Graphpad Software).

[2] = test system: C. elegans; experiment: SEC-ICP-MS (LC-ICP-MS) chromatographic distribution of iron in SIH-treated C. elegans; assay type: in vivo, Caenorhabditis elegans
Procedure: Samples were homogenized in TBS (pH 8.0) with added proteinase inhibitors (EDTA-free, Roche), then clarified by a 15 min centrifugation at 175,000 g, 4° C. The protein concentration of the supernatant was determined via UV absorbance (Nanodrop, ThermoScientific) and equivalent protein amounts were size-excluded using a Bio SEC-5 (4.6×300 mm, 5 μm, Agilent) column with 200 mM ammonium nitrate (trace analysis grade, Sigma) pH 8.0 buffer the flow rate was 0.4 mL/min at 30° C. The eluant from the column was directly connected to the ICP-MS for elemental detection as previously described (37).

[3] = test system: lysates of young adult wild type C. elegans; experiment: Ex vivo ROS production detected by DCF fluorescence from C. elegans lysates; assay type: biochemical, Caenorhabditis elegans; details: 50 μM DTPA added to lysate (10 μg) of young adult wild type
Procedure: 2′,7′-dichlorodihydrofluorescein diacetate (DCFH-DA) at 10 μM was used as a fluorescent probe for reactive oxygen species (ROS) detection in vivo using standard protocols (33). DCFH-DA enters and accumulates in the intestinal cells, where it is oxidized by several ROS (including hydroxyl radicals) to form the fluorophore DCF(34). Analysis of fluorescence rate increase was performed on samples sonicated in 1×TBS, pH 7.4 and recovered as the supernatant from a 100,000 g centrifugation at 4° C. Total protein concentration was determined by a Nanodrop spectrophotometer (Thermo Scientific). […] Fluorescence in 8 replicate wells was quantitated (Ex: 485 nm, Em: 535 nm using a 495 nm cut-off) by a FlexStation (Molecular Devices) plate reader, using 30 reads every minute for 1 h at medium PMT setting. Values from lysate-free (negative) controls were subtracted and the fluorescence data was then base line corrected. A linear regression fitted from 20-40 minutes and the slopes were normalized against 4-day old wild type and plotted (Prism v5.0d, Graphpad Software).

Compound	dose-dependency of lifespan extension ([1]; 0, 100, 250 μM SIH)	median lifespan ([1]; 100 μM SIH) [days]	median lifespan ([1]; 250 μM SIH) [days]	increase in lifespan ([1]; control versus 250 μM SIH median lifespan) [%]	Ferritin-bound iron (Peak #2) effect ([2]; 250 μM SIH, 10 day old, integration of peak area)	LMW-iron (Peak #3) effect in words ([2]; 250 μM SIH, 10 day old, integration of peak area from triplicate data)	HMW-iron (Peak #1) effect ([2]; 250 μM SIH, C. elegans aged to 10 days)	LMW-iron (Peak #3) normalized peak area change ([2]; 250 μM SIH, C. elegans aged to 10 days, versus control) [%]	total soluble zinc effect ([2]; SIH treatment (data not shown))	ROS production (DCF fluorescence) effect [3]
O=C(NN=Cc1ccccc1O)c1ccncc1 [SIH, salicylaldehyde isonicotinoyl hydrazone]	dose-dependency	17	21	75	reduced; also recorded: decreased	reduced; also recorded: lowered; also recorded: attenuated	unaffected	−43	unaffected	–
diethylenetriamine penta-acetic acid [DTPA]	–	–	–	–	–	–	–	–	–	abolished; also recorded: silenced
